From paper PMC3048208 (British Journal of Cancer, 2011)
Counter-ions that a name gives are not always drawn. Marks after values point to notes of the source that are not given here.

Test system: patients with advanced solid tumours
Assay: Phase I safety: DLT and adverse events (CTCAE v3.0)
[1] = Grades 3/4, level 1, 10 mg 3 days every 2 weeks, 3 patients
[2] = Grades 3/4, level 2, 10 mg, 6 patients
[3] = Grades 3/4, level 3, 20 mg, 6 patients
[4] = Grades 3/4, level 4, 30 mg, 4 patients
[5] = Grades 3/4, level 5, 50 mg, 4 patients
[6] = Grades 3/4, level 5.5, 60 mg, 7 patients
[7] = Grades 3/4, level 6, 70 mg, 6 patients
[8] = Grades 3/4, level 7, 90 mg, 2 patients
[9] = all 38 treated patients, all grades
[10] = dose level 3, dose 20, 5 days every 2 weeks
[11] = dose level 6, dose 70, 5 days every 2 weeks, re-opened for expansion

CCCCc1nc2cc(/C=C/C(=O)NO)ccc2n1CCN(CC)CC [SB939, 3-[2-butyl-1-(2-diethylaminoethyl)-1H-benzoimidazol-5-yl]-N-hydroxyacrylami-hydrochloride]
Myositis, no. of patients [1]: 0
Nausea, no. of patients [1]: 0
Neutropenia, no. of patients [1]: 1
QT prolongation, no. of patients [1]: 0
Supra ventricular arrythmia, no. of patients [1]: 0
Syncope, no. of patients [1]: 0
Thrombocytopenia, no. of patients [1]: 0
Ventricular arrythmias (PVCs), no. of patients [1]: 0
Ventricular bigemini, no. of patients [1]: 0
Vomiting, no. of patients [1]: 0
ALT (raised), no. of patients [2]: 0
AST (raised), no. of patients [2]: 0
Abdominal pain, no. of patients [2]: 0
Alkaline phophatase (raised), no. of patients [2]: 1
Altered taste, no. of patients [2]: 0
Anaemia, no. of patients [2]: 0
Anorexia, no. of patients [2]: 0
Bilirubin (raised), no. of patients [2]: 0
CPK, no. of patients [2]: 0
Cardiac arrythmia other, no. of patients [2]: 0
Cardiac dysfunction, no. of patients [2]: 0
Cardiac ischaemia, no. of patients [2]: 0
Constipation, no. of patients [2]: 0
Creatinine (raised), no. of patients [2]: 0
Diarrhoea, no. of patients [2]: 0
Fatigue, no. of patients [2]: 0
Leukopenia, no. of patients [2]: 0
Lymphopenia, no. of patients [2]: 2
Mucositis, no. of patients [2]: 0
Myositis, no. of patients [2]: 0
Nausea, no. of patients [2]: 0
Neutropenia, no. of patients [2]: 0
QT prolongation, no. of patients [2]: 0
Supra ventricular arrythmia, no. of patients [2]: 0
Syncope, no. of patients [2]: 0
Thrombocytopenia, no. of patients [2]: 0
Ventricular arrythmias (PVCs), no. of patients [2]: 0
Ventricular bigemini, no. of patients [2]: 0
Vomiting, no. of patients [2]: 0
ALT (raised), no. of patients [3]: 0
AST (raised), no. of patients [3]: 0
Abdominal pain, no. of patients [3]: 0
Alkaline phophatase (raised), no. of patients [3]: 1
Altered taste, no. of patients [3]: 0
Anaemia, no. of patients [3]: 1
Anorexia, no. of patients [3]: 0
Bilirubin (raised), no. of patients [3]: 0
CPK, no. of patients [3]: 1
Cardiac arrythmia other, no. of patients [3]: 0
Cardiac dysfunction, no. of patients [3]: 0
Cardiac ischaemia, no. of patients [3]: 0
Constipation, no. of patients [3]: 0
Creatinine (raised), no. of patients [3]: 0
Diarrhoea, no. of patients [3]: 0
Fatigue, no. of patients [3]: 0
Leukopenia, no. of patients [3]: 0
Lymphopenia, no. of patients [3]: 0
Mucositis, no. of patients [3]: 0
Myositis, no. of patients [3]: 1
Nausea, no. of patients [3]: 0
Neutropenia, no. of patients [3]: 0
QT prolongation, no. of patients [3]: 0
Supra ventricular arrythmia, no. of patients [3]: 0
Syncope, no. of patients [3]: 1
Thrombocytopenia, no. of patients [3]: 0
Ventricular arrythmias (PVCs), no. of patients [3]: 0
Ventricular bigemini, no. of patients [3]: 0
Vomiting, no. of patients [3]: 0
ALT (raised), no. of patients [4]: 0
AST (raised), no. of patients [4]: 0
Abdominal pain, no. of patients [4]: 0
Alkaline phophatase (raised), no. of patients [4]: 0
Altered taste, no. of patients [4]: 0
Anaemia, no. of patients [4]: 0
Anorexia, no. of patients [4]: 0
Bilirubin (raised), no. of patients [4]: 0
CPK, no. of patients [4]: 0
Cardiac arrythmia other, no. of patients [4]: 0
Cardiac dysfunction, no. of patients [4]: 0
Cardiac ischaemia, no. of patients [4]: 0
Constipation, no. of patients [4]: 0
Creatinine (raised), no. of patients [4]: 0
Diarrhoea, no. of patients [4]: 0
Fatigue, no. of patients [4]: 0
Leukopenia, no. of patients [4]: 0
Lymphopenia, no. of patients [4]: 0
Mucositis, no. of patients [4]: 0
Myositis, no. of patients [4]: 0
Nausea, no. of patients [4]: 0
Neutropenia, no. of patients [4]: 0
QT prolongation, no. of patients [4]: 0
Supra ventricular arrythmia, no. of patients [4]: 0
Syncope, no. of patients [4]: 0
Thrombocytopenia, no. of patients [4]: 0
Ventricular arrythmias (PVCs), no. of patients [4]: 0
Ventricular bigemini, no. of patients [4]: 0
Vomiting, no. of patients [4]: 0
ALT (raised), no. of patients [5]: 0
AST (raised), no. of patients [5]: 0
Abdominal pain, no. of patients [5]: 0
Alkaline phophatase (raised), no. of patients [5]: 0
Altered taste, no. of patients [5]: 0
Anaemia, no. of patients [5]: 0
Anorexia, no. of patients [5]: 0
Bilirubin (raised), no. of patients [5]: 0
CPK, no. of patients [5]: 0
Cardiac arrythmia other, no. of patients [5]: 0
Cardiac dysfunction, no. of patients [5]: 0
Cardiac ischaemia, no. of patients [5]: 0
Constipation, no. of patients [5]: 0
Creatinine (raised), no. of patients [5]: 0
Diarrhoea, no. of patients [5]: 0
Fatigue, no. of patients [5]: 0
Leukopenia, no. of patients [5]: 0
Lymphopenia, no. of patients [5]: 2
Mucositis, no. of patients [5]: 0
Myositis, no. of patients [5]: 0
Nausea, no. of patients [5]: 0
Neutropenia, no. of patients [5]: 0
QT prolongation, no. of patients [5]: 0
Supra ventricular arrythmia, no. of patients [5]: 0
Syncope, no. of patients [5]: 0
Thrombocytopenia, no. of patients [5]: 0
Ventricular arrythmias (PVCs), no. of patients [5]: 0
Ventricular bigemini, no. of patients [5]: 0
Vomiting, no. of patients [5]: 0
ALT (raised), no. of patients [6]: 2
AST (raised), no. of patients [6]: 0
Abdominal pain, no. of patients [6]: 0
Alkaline phophatase (raised), no. of patients [6]: 0
Altered taste, no. of patients [6]: 0
Anaemia, no. of patients [6]: 0
Anorexia, no. of patients [6]: 0
Bilirubin (raised), no. of patients [6]: 0
CPK, no. of patients [6]: 0
Cardiac arrythmia other, no. of patients [6]: 0
Cardiac dysfunction, no. of patients [6]: 0
Cardiac ischaemia, no. of patients [6]: 0
Constipation, no. of patients [6]: 0
Creatinine (raised), no. of patients [6]: 0
Diarrhoea, no. of patients [6]: 1
Fatigue, no. of patients [6]: 1
Leukopenia, no. of patients [6]: 1
Lymphopenia, no. of patients [6]: 3
Mucositis, no. of patients [6]: 0
Myositis, no. of patients [6]: 0
Nausea, no. of patients [6]: 0
Neutropenia, no. of patients [6]: 0
QT prolongation, no. of patients [6]: 0
Supra ventricular arrythmia, no. of patients [6]: 0
Syncope, no. of patients [6]: 0
Thrombocytopenia, no. of patients [6]: 0
Ventricular arrythmias (PVCs), no. of patients [6]: 0
Ventricular bigemini, no. of patients [6]: 0
Vomiting, no. of patients [6]: 0
ALT (raised), no. of patients [7]: 0
AST (raised), no. of patients [7]: 0
Abdominal pain, no. of patients [7]: 0
Alkaline phophatase (raised), no. of patients [7]: 0
Altered taste, no. of patients [7]: 0
Anaemia, no. of patients [7]: 0
Anorexia, no. of patients [7]: 0
Bilirubin (raised), no. of patients [7]: 0
CPK, no. of patients [7]: 0
Cardiac arrythmia other, no. of patients [7]: 0
Cardiac dysfunction, no. of patients [7]: 0
Cardiac ischaemia, no. of patients [7]: 0
Constipation, no. of patients [7]: 0
Creatinine (raised), no. of patients [7]: 0
Diarrhoea, no. of patients [7]: 0
Fatigue, no. of patients [7]: 2
Leukopenia, no. of patients [7]: 1
Lymphopenia, no. of patients [7]: 3
Mucositis, no. of patients [7]: 0
Myositis, no. of patients [7]: 0
Nausea, no. of patients [7]: 0
Neutropenia, no. of patients [7]: 1
QT prolongation, no. of patients [7]: 0
Supra ventricular arrythmia, no. of patients [7]: 0
Syncope, no. of patients [7]: 0
Thrombocytopenia, no. of patients [7]: 1
Ventricular arrythmias (PVCs), no. of patients [7]: 0
Ventricular bigemini, no. of patients [7]: 0
Vomiting, no. of patients [7]: 0
ALT (raised), no. of patients [8]: 0
AST (raised), no. of patients [8]: 0
Abdominal pain, no. of patients [8]: 0
Alkaline phophatase (raised), no. of patients [8]: 0
Altered taste, no. of patients [8]: 0
Anaemia, no. of patients [8]: 0
Anorexia, no. of patients [8]: 0
Bilirubin (raised), no. of patients [8]: 0
CPK, no. of patients [8]: 0
Cardiac arrythmia other, no. of patients [8]: 0
Cardiac dysfunction, no. of patients [8]: 0
Cardiac ischaemia, no. of patients [8]: 0
Constipation, no. of patients [8]: 0
Creatinine (raised), no. of patients [8]: 0
Diarrhoea, no. of patients [8]: 0
Fatigue, no. of patients [8]: 1
Leukopenia, no. of patients [8]: 0
Lymphopenia, no. of patients [8]: 0
Mucositis, no. of patients [8]: 0
Myositis, no. of patients [8]: 0
Nausea, no. of patients [8]: 0
Neutropenia, no. of patients [8]: 0
QT prolongation, no. of patients [8]: 0
Supra ventricular arrythmia, no. of patients [8]: 0
Syncope, no. of patients [8]: 0
Thrombocytopenia, no. of patients [8]: 0
Ventricular arrythmias (PVCs), no. of patients [8]: 0
Ventricular bigemini, no. of patients [8]: 0
Vomiting, no. of patients [8]: 1
Dose omissions, no. of patients (RPTD 60 mg, n=7, alteration of liver function tests): two
Dose reductions, no. of patients (RPTD 60 mg, n=7, transaminase rise and QTc prolongation): two
Grade 3 diarrhea, no. of patients (all 38 treated patients): one
Grade 3 fatigue, no. of patients (all 38 treated patients): 4
Grade 3 myositis, no. of patients (all 38 treated patients): one
Grade 3 syncope, no. of patients (all 38 treated patients): one
Grade 3 vomiting, no. of patients (all 38 treated patients): one
Anorexia, related AE, frequency [9]: 29%
Diarrhoea, related AE, frequency [9]: 18%
Fatigue, related AE, frequency [9]: 53%
Nausea, related AE, frequency [9]: 39%
Vomiting, related AE, frequency [9]: 29%
Grade 2 QTc prolongation, no. of patients (all dose levels): four
Grade 3 QTc elevations (all dose levels): none were grade 3
No. of patients with DLT/total no. of patients treated (dose level 1, dose 10, 3 days every 2 weeks): 0/3
No. of patients with DLT/total no. of patients treated (dose level 2, dose 10, 5 days every 2 weeks, grade 3 bilirubin subsequently declared not drug related): 1/6 ^a
DLT [10]: Grade 3 myositis
No. of patients with DLT/total no. of patients treated [10]: 1/6
No. of patients with DLT/total no. of patients treated (dose level 4, dose 30, 5 days every 2 weeks): 0/4
No. of patients with DLT/total no. of patients treated (dose level 5, dose 50, 5 days every 2 weeks): 0/4
DLT (dose level 5.5, dose 60, 5 days every 2 weeks, not clear if entirely related to drug): Grade 3 ALT ^d
No. of patients with DLT/total no. of patients treated (dose level 6, dose 70, 5 days every 2 weeks, escalation phase): 0/3
DLT [11]: Grade 4 platelets Grade 3 fatigue
No. of patients with DLT/total no. of patients treated [11]: 3/3
DLT (dose level 7, dose 90, 5 days every 2 weeks): Grade 3 fatigue Grade 3 vomiting
No. of patients with DLT/total no. of patients treated (dose level 7, dose 90, 5 days every 2 weeks, neither patient completed a full cycle): 1/2 ^b
Grade 2 QTc prolongation, no. of patients (dose level of 60 mg or higher): three
Granulocytopenia, patients (dose levels ⩽50 mg): 26%
Lymphopenia, patients (dose levels ⩽50 mg): 57%
Granulocytopenia, patients (dose ⩾60 mg): 60%
Lymphopenia, patients (dose ⩾60 mg): 80%
Thrombocytopenia, patients (dose ⩾60 mg): 87%
Anaemia, no. of patients (grade 1): 25
Anaemia, no. of patients (grade 2): 10
Anaemia, no. of patients (grade 3): 1
Anaemia on study, no. of patients (of 38 patients, any grade): Thirty-six
Maximum QTc (one patient, Day 1 cycle 7, 10 h after dose, unclear if drug related): 475 ms
LVEF during periods of arrhythmia (one patient, cycle 7, baseline 55%, unclear if drug related): 20–39%
Recommended phase II dose (RPTD) (oral, 5 consecutive days every 2 weeks): 60 mg
Maximal administered dose (MAD) (oral, 5 days every 2 weeks): 90 mg
Grade 3 CPK elevation, no. of patients (patient with myositis): one
